Data on twelve molecules can be found in patent US11787785B2 (NOVARTIS AG, priority 2021, dated 2023).

The assay concerns the target T1, WIZ protein (HiBit-WIZ fusion protein) (Homo sapiens, UniProt O95785+Q96SW2).
T1 construct: expressed in transfected cells
The assay is described as follows: Quantification of WIZ protein levels in HiBit tag fusion protein assay (WIZ HiBit assay in 293T cells). It is filed as cell-based. The settings on record: for Dmax at 25 µM / remaining activity at 25 µM: HEK-293T, 293T cells; for Dmax at 25 µM: 100 − Amax, read-out: % degradation of WIZ (100 − Amax); for remaining activity at 25 µM: DMSO-normalized, curve-fitted percentage of WIZ-HiBit remaining at 25 uM, read-out: WIZ Amax; for DC50: WIZ HiBit assay in 293T cells, 10-point, 5-fold dose response, highest concentration 25 μM, about 18 hours, read-out: WIZ AC50. The gist of the method: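 Luminescence after LgBit complementation quantified remaining HiBit-WIZ in lysates of single-copy stable 293T lines. Cells dosed ~18 h at 37 °C with 10-point, 5-fold dilutions (highest 25 μM); DMSO set to 100%, fitted curve gave % remaining at 25 μM (Amax).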
(In general: The HiBiT peptide binds its large partner to form an active luciferase.)

T1 sequence (O95785 whole entry, the tested form may be a part): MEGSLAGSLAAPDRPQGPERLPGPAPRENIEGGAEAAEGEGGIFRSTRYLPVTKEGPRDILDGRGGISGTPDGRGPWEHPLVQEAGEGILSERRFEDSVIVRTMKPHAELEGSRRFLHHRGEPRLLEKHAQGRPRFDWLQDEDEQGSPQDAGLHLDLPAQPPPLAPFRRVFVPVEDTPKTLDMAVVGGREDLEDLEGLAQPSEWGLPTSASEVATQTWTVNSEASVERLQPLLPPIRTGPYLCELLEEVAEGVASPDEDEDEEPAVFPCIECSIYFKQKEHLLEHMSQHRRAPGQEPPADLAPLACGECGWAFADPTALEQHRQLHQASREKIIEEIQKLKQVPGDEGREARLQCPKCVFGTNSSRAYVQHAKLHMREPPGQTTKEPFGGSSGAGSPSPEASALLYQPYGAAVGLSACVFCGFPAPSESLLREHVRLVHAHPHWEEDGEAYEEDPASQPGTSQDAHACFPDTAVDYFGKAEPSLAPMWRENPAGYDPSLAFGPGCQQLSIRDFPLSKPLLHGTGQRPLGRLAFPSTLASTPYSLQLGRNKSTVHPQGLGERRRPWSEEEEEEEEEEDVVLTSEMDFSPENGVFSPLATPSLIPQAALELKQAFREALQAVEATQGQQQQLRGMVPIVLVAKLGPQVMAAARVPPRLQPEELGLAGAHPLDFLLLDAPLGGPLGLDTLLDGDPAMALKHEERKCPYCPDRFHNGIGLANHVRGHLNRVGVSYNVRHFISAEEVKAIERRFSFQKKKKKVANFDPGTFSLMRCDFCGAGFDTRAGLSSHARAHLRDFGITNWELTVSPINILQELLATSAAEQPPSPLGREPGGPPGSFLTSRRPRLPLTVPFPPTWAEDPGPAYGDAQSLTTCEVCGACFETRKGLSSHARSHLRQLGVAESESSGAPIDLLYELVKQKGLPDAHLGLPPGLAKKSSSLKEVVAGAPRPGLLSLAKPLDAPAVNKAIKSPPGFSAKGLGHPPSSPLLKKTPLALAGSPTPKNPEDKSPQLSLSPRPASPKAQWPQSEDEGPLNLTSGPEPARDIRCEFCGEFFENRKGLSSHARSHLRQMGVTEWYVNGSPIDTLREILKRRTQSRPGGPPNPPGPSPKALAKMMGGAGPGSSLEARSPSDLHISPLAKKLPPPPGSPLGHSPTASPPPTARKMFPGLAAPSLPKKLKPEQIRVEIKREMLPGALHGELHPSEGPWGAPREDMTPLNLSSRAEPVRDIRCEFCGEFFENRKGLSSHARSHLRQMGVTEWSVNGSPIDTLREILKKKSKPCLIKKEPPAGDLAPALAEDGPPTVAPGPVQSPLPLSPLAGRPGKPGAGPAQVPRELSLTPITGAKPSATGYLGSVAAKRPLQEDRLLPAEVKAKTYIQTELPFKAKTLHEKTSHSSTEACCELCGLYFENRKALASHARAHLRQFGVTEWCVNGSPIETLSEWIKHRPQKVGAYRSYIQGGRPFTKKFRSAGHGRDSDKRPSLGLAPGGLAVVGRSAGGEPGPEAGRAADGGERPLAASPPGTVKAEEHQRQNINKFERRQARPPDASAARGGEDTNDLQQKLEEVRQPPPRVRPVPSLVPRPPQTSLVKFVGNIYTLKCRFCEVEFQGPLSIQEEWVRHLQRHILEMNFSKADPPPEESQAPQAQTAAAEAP
T1 sequence (Q96SW2 whole entry, the tested form may be a part): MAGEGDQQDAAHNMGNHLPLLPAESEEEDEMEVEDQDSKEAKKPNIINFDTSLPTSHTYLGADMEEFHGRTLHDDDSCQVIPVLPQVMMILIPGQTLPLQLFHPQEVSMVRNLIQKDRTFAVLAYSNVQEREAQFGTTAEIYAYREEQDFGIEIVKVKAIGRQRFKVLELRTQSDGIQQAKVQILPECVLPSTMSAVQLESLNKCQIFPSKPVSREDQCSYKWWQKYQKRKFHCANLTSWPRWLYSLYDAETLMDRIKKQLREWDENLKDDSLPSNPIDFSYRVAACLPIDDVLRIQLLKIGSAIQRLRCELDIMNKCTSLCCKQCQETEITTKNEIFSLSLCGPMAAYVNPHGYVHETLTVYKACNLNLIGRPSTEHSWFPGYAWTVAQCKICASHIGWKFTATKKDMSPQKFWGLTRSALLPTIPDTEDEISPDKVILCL
T1 sequence (Q16531 whole entry partner, the tested form may be a part): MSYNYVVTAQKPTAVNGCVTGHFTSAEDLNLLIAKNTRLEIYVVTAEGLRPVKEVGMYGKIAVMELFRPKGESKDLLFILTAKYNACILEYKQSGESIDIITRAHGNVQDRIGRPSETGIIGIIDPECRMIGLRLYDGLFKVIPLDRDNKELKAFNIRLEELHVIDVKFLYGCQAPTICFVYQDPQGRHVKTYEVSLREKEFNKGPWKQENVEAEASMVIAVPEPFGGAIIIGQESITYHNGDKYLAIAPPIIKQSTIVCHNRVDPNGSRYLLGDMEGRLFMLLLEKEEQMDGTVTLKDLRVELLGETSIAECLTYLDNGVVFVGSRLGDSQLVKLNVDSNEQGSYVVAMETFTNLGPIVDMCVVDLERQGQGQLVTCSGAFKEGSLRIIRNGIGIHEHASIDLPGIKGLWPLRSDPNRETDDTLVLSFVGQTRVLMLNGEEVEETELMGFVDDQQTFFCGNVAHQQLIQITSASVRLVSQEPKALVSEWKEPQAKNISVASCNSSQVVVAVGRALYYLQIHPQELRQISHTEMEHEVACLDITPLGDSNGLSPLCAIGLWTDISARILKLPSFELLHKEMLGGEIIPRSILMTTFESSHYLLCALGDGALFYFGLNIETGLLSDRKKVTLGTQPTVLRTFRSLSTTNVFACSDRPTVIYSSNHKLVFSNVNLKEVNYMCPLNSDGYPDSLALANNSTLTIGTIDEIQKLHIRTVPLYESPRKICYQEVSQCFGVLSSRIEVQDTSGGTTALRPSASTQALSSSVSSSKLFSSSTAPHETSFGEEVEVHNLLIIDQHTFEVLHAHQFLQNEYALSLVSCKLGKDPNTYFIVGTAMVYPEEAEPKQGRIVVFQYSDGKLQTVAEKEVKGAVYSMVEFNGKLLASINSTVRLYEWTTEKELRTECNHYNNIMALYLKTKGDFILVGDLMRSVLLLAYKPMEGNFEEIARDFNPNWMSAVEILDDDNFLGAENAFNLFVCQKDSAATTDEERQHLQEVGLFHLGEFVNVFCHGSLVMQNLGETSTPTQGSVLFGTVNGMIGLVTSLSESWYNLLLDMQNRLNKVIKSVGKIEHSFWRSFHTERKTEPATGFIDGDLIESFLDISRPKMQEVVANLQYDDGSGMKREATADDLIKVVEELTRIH

With `C[C@H]1C[C@H](Cc2ccn3ncc(N4CCC(=O)NC4=O)c3c2)CCN1S(=O)(=O)N(C)C` [Example 292], the Dmax at 25 µM turned out to be 83%, the remaining activity at 25 µM was 17% and the DC50 came to 11 nM.
Consider `O=C1CCN(c2cnn3ccc(CN4CCN(CCC5CCCCC5)C(=O)C4)cc23)C(=O)N1` [Example 243, 1-(5-((4-(2-cyclohexylethyl)-3-oxopiperazin-1-yl)methyl)pyrazolo[1,5-a]pyridin-3-yl)dihydropyrimidine-2,4(1H,3H)-dione], for which the Dmax at 25 µM was 13%, the remaining activity at 25 µM was determined as 87% and the DC50 is 3060 nM.
The corresponding values for `C[C@H]1C[C@@H](Cc2ccn3ncc(N4CCC(=O)NC4=O)c3c2)CCN1CC1CCC(F)(F)CC1` [Example 74] are 90%, 10% and 3 nM.
Taken in the same sequence, the figures for `C[C@H]1CN(Cc2ccn3ncc(N4CCC(=O)NC4=O)c3c2)CCN1CC1CC1` [Example 321, (S)-1-(5-((4-(cyclopropylmethyl)-3-methylpiperazin-1-yl)methyl)pyrazolo[1,5-a]pyridin-3-yl)dihydropyrimidine-2,4(1H,3H)-dione] were 78%, 22% and 67 nM.
The corresponding values for `CC(C)CS(=O)(=O)N1CCC(Cc2ccn3ncc(N4CCC(=O)NC4=O)c3c2)CC1` [Example 87] are 79%, 21% and 25 nM.
On to `CC(C)CN1CCC(Cc2ccn3ncc(N4CCC(=O)NC4=O)c3c2)C1` (stereo not drawn) [Example 132], for which the Dmax at 25 µM was 41%, the remaining activity at 25 µM is 59% and the DC50 was found to be 720 nM.
For the molecule `O=C1CCN(c2cnn3ccc(CN4CCN(Cc5cccc(F)c5)CC4)cc23)C(=O)N1` [Example 170], the Dmax at 25 µM was determined as 53%, the remaining activity at 25 µM is 47% and the DC50 was found to be 228 nM.
The corresponding values for `O=C1CCN(c2cnn3ccc(CC4CCN(CC(F)F)CC4)cc23)C(=O)N1` [Example 43, 1-(5-((1-(2,2-difluoroethyl)piperidin-4-yl)methyl)pyrazolo[1,5-a]pyridin-3-yl)dihydropyrimidine-2,4(1H,3H)-dione] are 70%, 30% and 34 nM.
Taken in the same sequence, the figures for `CC[C@H]1CN(Cc2ccn3ncc(N4CCC(=O)NC4=O)c3c2)CCN1CC1CCOCC1` [Example 227, (S)-1-(5-((3-ethyl-4-((tetrahydro-2H-pyran-4-yl)methyl)piperazin-1-yl)methyl)pyrazolo[1,5-a]pyridin-3-yl)dihydropyrimidine-2,4(1H,3H)-dione] were 60%, 40% and 956 nM.
The corresponding values for `C[C@H]1C[C@H](Cc2ccn3ncc(N4CCC(=O)NC4=O)c3c2)CCN1Cc1cccnc1` [Example 150] are 90%, 10% and 0.3 nM.
With `Cc1ccc(CN2CCC(Cc3ccn4ncc(N5CCC(=O)NC5=O)c4c3)CC2)cn1` [Example 46, 1-(5-((1-((6-methylpyridin-3-yl)methyl)piperidin-4-yl)methyl)pyrazolo[1,5-a]pyridin-3-yl)dihydropyrimidine-2,4(1H,3H)-dione], the Dmax at 25 µM was found to be 69%, the remaining activity at 25 µM was 31% and the DC50 is 58 nM.
The corresponding values for `O=C1CCN(c2cnn3ccc(CC4C[C@H]5CC[C@@H](C4)N5Cc4cccnc4)cc23)C(=O)N1` (stereo partly drawn) [Example 68, 1-(5-(((1R,5S)-8-(pyridin-3-ylmethyl)-8-azabicyclo[3.2.1]octan-3-yl)methyl)pyrazolo[1,5-a]pyridin-3-yl)dihydropyrimidine-2,4(1H,3H)-dione] are 57%, 43% and 384 nM.
